Results published in ChEMBL document CHEMBL3414454, “Designing and exploring active N'-[(5-nitrofuran-2-yl) methylene] substituted hydrazides against three Trypanosoma cruzi strains more prevalent in Chagas disease patients” (Eur J Med Chem, 2015).

Key:
Trypanosoma cruzi [1] = assay: Anti-trypanosomal activity against Trypanosoma cruzi Silvio X10 cl1 epimastigote forms assessed as inhibition of parasite growth after 72 hrs by microplate reader based assay; type: functional, organism-based; conditions: for IC50: Trypanosoma cruzi, Silvio X10 cl1, 72 h
[2] = Selectivity index, ratio of IC50 for human LL24 cells to IC50 for Trypanosoma cruzi Y epimastigote forms; type: toxicity, cell-based; conditions: read-out: Ratio IC50
[3] = Selectivity index, ratio of IC50 for human LL24 cells to IC50 for Trypanosoma cruzi Silvio X10 cl1 epimastigote forms; type: toxicity, cell-based; conditions: read-out: Ratio IC50
[4] = Cytotoxicity against human LL24 cells assessed as inhibition of cell growth after 24 hrs by MTT assay; type: cell-based; conditions: LL24, 24 h
Trypanosoma cruzi [5] = assay: Anti-trypanosomal activity against Trypanosoma cruzi Y epimastigote forms assessed as inhibition of parasite growth after 72 hrs by microplate reader based assay; type: functional, organism-based; conditions: for IC50: Trypanosoma cruzi, Y, 72 h
[6] = Selectivity index, ratio of IC50 for human LL24 cells to IC50 for Trypanosoma cruzi Bug 2149 cl10; type: toxicity, cell-based; conditions: read-out: Ratio IC50
Trypanosoma cruzi [7] = assay: Anti-trypanosomal activity against Trypanosoma cruzi Bug 2149 cl10 epimastigote forms assessed as inhibition of parasite growth after 72 hrs by microplate reader based assay; type: functional, organism-based; conditions: for IC50: Trypanosoma cruzi, Bug 2149 cl10, CL1-0, 72 h

Row | log1/IC50 (Trypanosoma cruzi [1]) | IC50 (Trypanosoma cruzi [1]) | log1/IC50 (Trypanosoma cruzi [5]) | IC50 (Trypanosoma cruzi [5]) | log1/IC50 (Trypanosoma cruzi [7]) | IC50 (Trypanosoma cruzi [7]) | Structure (SMILES) | selectivity ratio [2] | selectivity ratio [3] | IC50 [4] | selectivity ratio [6]
1 | 4.86 | 13.7 µM | 4.84 | 14.4 µM | 4.89 | 12.8 µM | O=C(N/N=C/c1ccc([N+](=O)[O-])o1)C1CCCCC1 | > 14 | > 15 | > 200 µM | > 16
2 | 5.01 | 9.72 µM | 4.99 | 10.2 µM | 4.91 | 12.2 µM | CCCCCC(=O)N/N=C/c1ccc([N+](=O)[O-])o1 | 10 | 10 | 99 µM | 8
3 | 4.83 | 14.7 µM | 4.87 | 13.5 µM | 4.84 | 14.4 µM | CCCCCCCC(=O)N/N=C/c1ccc([N+](=O)[O-])o1 | 7 | 6 | 91 µM | 6
4 | 4.43 | 37.4 µM | 4.64 | 23.1 µM | 4.6 | 25.3 µM | N#Cc1ccc(C(=O)N/N=C/c2ccc([N+](=O)[O-])o2)cc1 | > 9 | > 5 | > 200 µM | > 8
5 | 5.32 | 4.75 µM | 5.51 | 3.1 µM | 5.36 | 4.41 µM | CCCCc1ccc(C(=O)N/N=C/c2ccc([N+](=O)[O-])o2)cc1 | > 64 | > 42 | > 200 µM | > 45
6 | 4.7 | 19.9 µM | 4.93 | 11.9 µM | 4.84 | 14.6 µM | O=C(N/N=C/c1ccc([N+](=O)[O-])o1)C1CCCC1 | 5 | 3 | 58 µM | 4
7 | 4.86 | 13.7 µM | 5.03 | 9.43 µM | 4.86 | 13.7 µM | CC(C)(C)c1ccc(C(=O)N/N=C/c2ccc([N+](=O)[O-])o2)cc1 | > 21 | > 15 | > 200 µM | > 15
8 | 4.99 | 10.3 µM | 5.04 | 9.09 µM | 5.01 | 9.8 µM | CCCc1ccc(C(=O)N/N=C/c2ccc([N+](=O)[O-])o2)cc1 | 10 | 9 | 89 µM | 9
9 | 4.89 | 12.8 µM | 5.13 | 7.33 µM | 5.01 | 9.72 µM | CCCOc1ccc(C(=O)N/N=C/c2ccc([N+](=O)[O-])o2)cc1 | > 27 | > 16 | > 200 µM | > 21
10 | 5.29 | 5.07 µM | 5.46 | 3.47 µM | 5.37 | 4.25 µM | CCCCOc1ccc(C(=O)N/N=C/c2ccc([N+](=O)[O-])o2)cc1 | > 58 | > 39 | > 200 µM | > 47
11 | 4.86 | 13.8 µM | 5.03 | 9.41 µM | 4.91 | 12.2 µM | CC(C)(C)OC(=O)N/N=C/c1ccc([N+](=O)[O-])o1 | > 21 | > 14 | > 200 µM | > 16
12 | 4.69 | 20.2 µM | 4.96 | 11 µM | 4.91 | 12.3 µM | O=C(Cc1ccccc1)N/N=C/c1ccc([N+](=O)[O-])o1 | 8.83 | 4.79 | 97 µM | 7.91
13 | 5.22 | 6.09 µM | 5.41 | 3.91 µM | 5.04 | 9.04 µM | CC(C)c1ccc(C(=O)N/N=C/c2ccc([N+](=O)[O-])o2)cc1 | > 51 | > 33 | > 200 µM | > 22
14 | 5.36 | 4.34 µM | 5.51 | 3.39 µM | 5.37 | 4.22 µM | CCCCNc1ccc(C(=O)N/N=C/c2ccc([N+](=O)[O-])o2)cc1 | 14 | 11 | 47 µM | 11
15 | 5.5 | 3.17 µM | 5.93 | 1.17 µM | 5.74 | 1.81 µM | O=C(N/N=C/c1ccc([N+](=O)[O-])o1)c1ccc(-c2ccccc2)cc1 | > 176 | > 63 | > 200 µM | > 110
16 | 4.91 | 12.3 µM | 5.11 | 7.79 µM | 4.91 | 12.2 µM | O=C(N/N=C/c1ccc([N+](=O)[O-])o1)c1ccccc1Oc1ccccc1 | > 26 | > 16 | > 200 µM | > 16
17 | 4.56 | 27.7 µM | 5 | 9.89 µM | 4.61 | 24.8 µM | Cc1cccc(C(=O)N/N=C/c2ccc([N+](=O)[O-])o2)c1 | > 20 | > 7 | > 200 µM | > 8
18 | 4.51 | 31.1 µM | 4.9 | 12.6 µM | 4.85 | 14.2 µM | O=C(N/N=C/c1ccc([N+](=O)[O-])o1)c1ccccc1 | 14 | 5.72 | 178 µM | 12.5
19 | 4.7 | 20 µM | 5.04 | 9.15 µM | 4.84 | 14.5 µM | O=C(N/N=C/c1ccc([N+](=O)[O-])o1)c1ccc(Cl)cc1 | 20.4 | 9.36 | 187 µM | 12.9
20 | 4 | 100 µM | 4 | 100 µM | 4.33 | 47.3 µM | CN(C)c1ccc(C(=O)N/N=C/c2ccc([N+](=O)[O-])o2)cc1 | > 2 | > 2 | > 200 µM | > 4
21 |  |  | 3.52 | 300 µM | 3.52 | 300 µM | O=C(N/N=C/c1ccc([N+](=O)[O-])o1)c1ccc(O)cc1 [NIFUROXAZIDE] | > 1 |  | > 200 µM | > 1
22 | 5.22 |  | 4.89 | 12.8 µM | 5.14 | 7.32 µM | CC1CS(=O)(=O)CCN1/N=C/c1ccc([N+](=O)[O-])o1 (stereo not drawn) [NIFURTIMOX] | > 16 | > 33 | > 200 µM | > 27
23 | 4.57 | 27.1 µM | 4.86 | 13.7 µM | 4.8 | 15.8 µM | CC(=O)N/N=C/c1ccc([N+](=O)[O-])o1 [NIHYDRAZONE] | > 15 | > 7 | > 200 µM | > 13

Row | Structure (SMILES) | log1/IC50 (Trypanosoma cruzi [1]) | IC50 (Trypanosoma cruzi [1]) | log1/IC50 (Trypanosoma cruzi [5]) | IC50 (Trypanosoma cruzi [5]) | log1/IC50 (Trypanosoma cruzi [7]) | IC50 (Trypanosoma cruzi [7]) | selectivity ratio [2] | selectivity ratio [3] | IC50 [4] | selectivity ratio [6]
24 | O=C(Cn1ccnc1[N+](=O)[O-])NCc1ccccc1 [BENZNIDAZOLE] |  |  |  | 40.4 µM |  |  |  |  | > 200 µM | 
